Laboratory results reported in PubChem BioAssay AID330 (DTP/NCI, 2004).
Toxic doses and inconclusive results are not listed. Rule for the calls: active = survival T/C of 150% or more; inactive = T/C below 125% in these data.

System: P388 leukemia ip, CD2F1 mice, survival T/C
Test: NCI In Vivo Anticancer Drug Screen. Data for tumor model P388 Leukemia (intraperitoneal) in CD2F1 (CDF1) mice
Conditions: endpoint: median survival time, higher = longer survival
How it was run: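 Mice carrying the transplanted tumor received test compound or vehicle. Survival was recorded in each group, and the value is the treated-group measurement divided by that of the vehicle-treated control group.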

[1] = dose: 50.0 mg/kg/injection, schedule: Q01DX005 (ip), vehicle: Klucel (hydroxypropylcellulose) (HPC)
[2] = dose: 100.0 mg/kg/injection, schedule: Q01DX005 (ip), vehicle: Klucel (hydroxypropylcellulose) (HPC)
[3] = dose: 200.0 mg/kg/injection, schedule: Q01DX005 (ip), vehicle: Klucel (hydroxypropylcellulose) (HPC)
[4] = dose: 50.0 mg/kg/injection, schedule: Q01DX005 (ip), vehicle: saline with Tween-80
[5] = dose: 100.0 mg/kg/injection, schedule: Q01DX005 (ip), vehicle: saline with Tween-80
[6] = dose: 60.0 mg/kg/injection, schedule: Q01DX005 (ip), vehicle: saline with Tween-80
[7] = dose: 120.0 mg/kg/injection, schedule: Q01DX005 (ip), vehicle: saline with Tween-80
[8] = dose: 240.0 mg/kg/injection, schedule: Q01DX005 (ip), vehicle: saline with Tween-80
[9] = dose: 70.0 mg/kg/injection, schedule: Q01DX005 (ip), vehicle: Klucel (hydroxypropylcellulose) (HPC)
[10] = dose: 50.0 mg/kg/injection, schedule: Q01DX009 (ip), vehicle: Klucel (hydroxypropylcellulose) (HPC)
[11] = dose: 100.0 mg/kg/injection, schedule: Q01DX009 (ip), vehicle: Klucel (hydroxypropylcellulose) (HPC)
[12] = dose: 200.0 mg/kg/injection, schedule: Q01DX009 (ip), vehicle: Klucel (hydroxypropylcellulose) (HPC)

Measured: T/C

C1CN(P2(N3CC3)=NP(N3CC3)(N3CC3)=NP(N3CC3)(N3CC3)=N2)CCO1 (configuration not stated)
active: dose: 4.0 mg/kg/injection, schedule: Q01DX009 (ip), vehicle: saline 161 % of control | dose: 6.25 mg/kg/injection, schedule: Q01DX009 (ip), vehicle: saline 157 % of control | dose: 8.0 mg/kg/injection, schedule: Q01DX009 (ip), vehicle: saline 212 % of control | dose: 12.5 mg/kg/injection, schedule: Q01DX009 (ip), vehicle: saline 183 % of control | dose: 16.0 mg/kg/injection, schedule: Q01DX009 (ip), vehicle: saline 174 % of control | dose: 25.0 mg/kg/injection, schedule: Q01DX009 (ip), vehicle: saline 215 % of control | dose: 32.0 mg/kg/injection, schedule: Q01DX009 (ip), vehicle: saline 235 % of control
inactive: dose: 3.13 mg/kg/injection, schedule: Q01DX009 (ip), vehicle: saline 123 % of control | dose: 50.0 mg/kg/injection, schedule: Q01DX009 (ip), vehicle: saline 104 % of control | dose: 64.0 mg/kg/injection, schedule: Q01DX009 (ip), vehicle: saline 108 % of control | dose: 100.0 mg/kg/injection, schedule: Q01DX009 (ip), vehicle: saline 86 % of control

OCC(O)C(O)C(O)C(O)C(O)c1nc2ccccc2[nH]1 (configuration not stated)
inactive: [1] 98 % of control | [2] 102 % of control | [3] 100 % of control

Oc1cccc([C@@]23CCCC[C@H]2CN(CC2CC2)CC3)c1
inactive: [4] 90 % of control | [5] 111 % of control

Cc1ccc(C(=O)NCCN2CCN3Cc4[nH]c5ccccc5c4CC3C2)cc1 (configuration not stated)
inactive: dose: 100.0 mg/kg/injection, schedule: Q04DX002 (ip), vehicle: saline with Tween-80 92 % of control | dose: 200.0 mg/kg/injection, schedule: Q04DX002 (ip), vehicle: saline with Tween-80 105 % of control

COC(=O)Cc1cc(=O)[nH][nH]1
inactive: dose: 50.0 mg/kg/injection, schedule: Q01DX001 (ip), vehicle: suspension in saline 93 % of control | dose: 100.0 mg/kg/injection, schedule: Q01DX001 (ip), vehicle: suspension in saline 95 % of control | dose: 200.0 mg/kg/injection, schedule: Q01DX001 (ip), vehicle: suspension in saline 86 % of control

O=C(O)CCC(=O)OC(C1CO1)C(OC(=O)CCC(=O)O)C1CO1 (configuration not stated)
inactive: dose: 2.5 mg/kg/injection, schedule: Q01DX009 (ip), vehicle: saline 90 % of control | dose: 2.5 mg/kg/injection, schedule: Q01DX009 (ip), vehicle: sodium bicarbonate 103 % of control | dose: 5.0 mg/kg/injection, schedule: Q01DX009 (ip), vehicle: saline 116 % of control | dose: 5.0 mg/kg/injection, schedule: Q01DX009 (ip), vehicle: sodium bicarbonate 101 % of control | dose: 10.0 mg/kg/injection, schedule: Q01DX009 (ip), vehicle: sodium bicarbonate 120 % of control | dose: 20.0 mg/kg/injection, schedule: Q01DX009 (ip), vehicle: sodium bicarbonate 122 % of control | dose: 320.0 mg/kg/injection, schedule: Q01DX009 (ip), vehicle: saline 87 % of control | dose: 320.0 mg/kg/injection, schedule: Q01DX009 (ip), vehicle: sodium bicarbonate 93 % of control
active: dose: 20.0 mg/kg/injection, schedule: Q01DX009 (ip), vehicle: saline 153 % of control | dose: 40.0 mg/kg/injection, schedule: Q01DX009 (ip), vehicle: saline 167 % of control | dose: 80.0 mg/kg/injection, schedule: Q01DX009 (ip), vehicle: saline 206 % of control | dose: 80.0 mg/kg/injection, schedule: Q01DX009 (ip), vehicle: sodium bicarbonate 169 % of control | dose: 160.0 mg/kg/injection, schedule: Q01DX009 (ip), vehicle: sodium bicarbonate 198 % of control

N#CCCN(CCC#N)c1ccc(/C=C2\C(=O)N(c3ccc(S(=O)(=O)O)cc3)N=C2C(=O)O)cc1
inactive: [6] 102 % of control | [7] 94 % of control | [8] 105 % of control

O=C(O)C1=C(/C=C/Cl)CC1
inactive: dose: 50.0 mg/kg/injection, schedule: Q01DX009 (ip), vehicle: saline with Tween-80 102 % of control | dose: 100.0 mg/kg/injection, schedule: Q01DX009 (ip), vehicle: saline with Tween-80 96 % of control | dose: 200.0 mg/kg/injection, schedule: Q01DX009 (ip), vehicle: saline with Tween-80 99 % of control

BrCC1C[n+]2c(cc(-c3ccccc3)cc2-c2ccccc2)S1 (configuration not stated)
inactive: dose: 3.75 mg/kg/injection, schedule: Q01DX005 (ip), vehicle: Klucel (hydroxypropylcellulose) (HPC) 100 % of control | dose: 7.5 mg/kg/injection, schedule: Q01DX005 (ip), vehicle: Klucel (hydroxypropylcellulose) (HPC) 99 % of control

CCc1n[nH]c(CC)c1CCCCCCOc1ccc(OC)cc1Cl
inactive: [4] 102 % of control | [6] 100 % of control | [5] 105 % of control | [7] 93 % of control | dose: 200.0 mg/kg/injection, schedule: Q01DX005 (ip), vehicle: saline with Tween-80 108 % of control | [8] 106 % of control

c1ccc2c(c1)ncn2Sn1cnc2ccccc21
inactive: dose: 17.5 mg/kg/injection, schedule: Q01DX005 (ip), vehicle: Klucel (hydroxypropylcellulose) (HPC) 102 % of control | dose: 35.0 mg/kg/injection, schedule: Q01DX005 (ip), vehicle: Klucel (hydroxypropylcellulose) (HPC) 118 % of control | [9] 104 % of control

CCCCS(=O)(=O)CCC(N)C(=O)O (configuration not stated)
inactive: [6] 94 % of control | [7] 90 % of control

C/C1=C/CCC(C)c2cc(OC(=O)c3ccccc3)c(C)cc2C1 (configuration not stated)
inactive: dose: 25.0 mg/kg/injection, schedule: Q01DX005 (ip), vehicle: Klucel (hydroxypropylcellulose) (HPC) 104 % of control | [1] 99 % of control | [9] 90 % of control | [2] 107 % of control | dose: 140.0 mg/kg/injection, schedule: Q01DX005 (ip), vehicle: Klucel (hydroxypropylcellulose) (HPC) 95 % of control | [3] 95 % of control | dose: 280.0 mg/kg/injection, schedule: Q01DX005 (ip), vehicle: Klucel (hydroxypropylcellulose) (HPC) 90 % of control | dose: 560.0 mg/kg/injection, schedule: Q01DX005 (ip), vehicle: Klucel (hydroxypropylcellulose) (HPC) 90 % of control

CCCCC(CC)C(=O)[O][Sn]([CH2]CCC)([CH2]CCC)[O]C(=O)C(CC)CCCC (configuration not stated)
inactive: dose: 1.5 mg/kg/injection, schedule: Q01DX009 (ip), vehicle: saline sonified 104 % of control | dose: 3.0 mg/kg/injection, schedule: Q01DX009 (ip), vehicle: saline sonified 95 % of control | dose: 6.0 mg/kg/injection, schedule: Q01DX009 (ip), vehicle: saline sonified 118 % of control

COc1ccc(Cc2n[nH]c(=O)c3c(C)[nH]nc23)cc1
inactive: [10] 93 % of control | [11] 100 % of control | [12] 119 % of control

COc1nc(N)nc2c1CSc1ccccc1-2
inactive: [1] 97 % of control | [2] 97 % of control | [3] 90 % of control

CSc1nc2[nH]cnc(=S)c2[nH]1
inactive: dose: 6.25 mg/kg/injection, schedule: Q04DX003 (ip), vehicle: saline with Tween-80 90 % of control | dose: 12.5 mg/kg/injection, schedule: Q04DX003 (ip), vehicle: saline with Tween-80 90 % of control | dose: 25.0 mg/kg/injection, schedule: Q04DX003 (ip), vehicle: saline with Tween-80 109 % of control

COC(=O)c1ccccc1N=NN(C)CC1OC2OC(C)(C)OC2C1OC (configuration not stated)
inactive: dose: 100.0 mg/kg/injection, schedule: Q01DX001 (ip), vehicle: saline with Tween-80 99 % of control | dose: 200.0 mg/kg/injection, schedule: Q01DX001 (ip), vehicle: saline with Tween-80 99 % of control | dose: 400.0 mg/kg/injection, schedule: Q01DX001 (ip), vehicle: saline with Tween-80 97 % of control

COc1cccc(-c2nnc(-n3cc(-c4ccccc4)cc3N)s2)c1
inactive: dose: 50.0 mg/kg/injection, schedule: Q01DX001 (ip), vehicle: Klucel (hydroxypropylcellulose) (HPC) 104 % of control | dose: 100.0 mg/kg/injection, schedule: Q01DX001 (ip), vehicle: Klucel (hydroxypropylcellulose) (HPC) 95 % of control | dose: 200.0 mg/kg/injection, schedule: Q01DX001 (ip), vehicle: Klucel (hydroxypropylcellulose) (HPC) 89 % of control

CC1Cn2c(nc3sc4c(c3c2=O)CCCC4)S1 (configuration not stated)
inactive: [10] 104 % of control | [11] 97 % of control | [12] 106 % of control
